Reference: patent publication US20150175599A1, “FAAH Inhibitors” (Ironwood Pharmaceuticals, Inc., priority 2010, published 2015)

Legend:
[1] = Pharmacokinetic study, plasma level 2 hours after oral dosing in rats; type: in vivo
Procedure, shortened: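 Rats dosed by oral gavage in 1% DMA/99% Vitamin E TPGS; EDTA plasma taken by retro-orbital bleed 2 h post-dose. Acetonitrile precipitation with internal standard, LC/MS/MS quantitation against plasma standards 0.1–3000 ng/mL.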

human FAAH-1 = target: T1, human FAAH-1 (Homo sapiens, UniProt O00519); assay: Whole cell anandamide hydrolysis assay (HeLa clone 5c5 transfected with human FAAH-1); type: cell-based; details: HeLa clone 5c5 expressing human FAAH-1; read-out: human FAAH whole cell IC50
T1 sequence (O00519 1-579): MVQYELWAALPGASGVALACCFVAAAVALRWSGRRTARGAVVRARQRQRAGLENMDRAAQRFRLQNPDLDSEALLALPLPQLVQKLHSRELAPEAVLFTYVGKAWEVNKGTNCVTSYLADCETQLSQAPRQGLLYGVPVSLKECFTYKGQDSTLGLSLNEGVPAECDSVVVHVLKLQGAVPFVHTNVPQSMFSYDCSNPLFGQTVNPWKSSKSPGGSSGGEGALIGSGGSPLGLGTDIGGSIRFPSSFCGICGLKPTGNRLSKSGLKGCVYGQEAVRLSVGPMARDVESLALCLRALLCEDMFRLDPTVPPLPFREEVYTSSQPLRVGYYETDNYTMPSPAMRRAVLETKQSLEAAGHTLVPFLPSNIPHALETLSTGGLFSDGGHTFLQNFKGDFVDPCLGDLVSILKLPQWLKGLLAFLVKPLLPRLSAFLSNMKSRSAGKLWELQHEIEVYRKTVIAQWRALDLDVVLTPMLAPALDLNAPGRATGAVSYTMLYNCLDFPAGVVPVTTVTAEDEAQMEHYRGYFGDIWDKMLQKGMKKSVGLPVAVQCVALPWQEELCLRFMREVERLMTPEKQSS
Procedure, shortened: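 Stable HeLa clone 5c5 expressing human FAAH-1, pre-incubated with compound 10 min at 37° C in DMEM/F12 with 15 mM HEPES pH 7.4 and 0.1% fatty-acid-free BSA. [3H]-anandamide (5 μM stock) added for 15 min; [3H]-ethanolamine separated on charcoal and counted. IC50 from curves constrained to 100% and 0%.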

| SMILES | 2 hr plasma level-ng/mL (rat, 10 mg/kg PO, 2 hr) [1] | IC50 (human FAAH-1) [µM] |
| --- | --- | --- |
| COc1cnc2c(c1)c(C(=O)C(=O)Nc1ccnc(OC)c1)c(C)n2Cc1ccc(Cl)cc1Cl [Compound 42, 2-(1-(2,4-dichlorobenzyl)-5-methoxy-2-methyl-1H-pyrrolo[2,3-b]pyridin-3-yl)-N-(2-methoxypyridin-4-yl)-2-oxoacetamide] | C (C = between 100 nM and 1000 nM) | < 0.1 |
| COc1cc(NC(=O)C(=O)c2c(C)n(Cc3ccc(Cl)cc3)c3cccc(OC)c23)ccn1 [Compound 45, 2-(1-(4-chlorobenzyl)-4-methoxy-2-methyl-1H-indol-3-yl)-N-(2-methoxypyridin-4-yl)-2-oxoacetamide] | C (C = between 100 nM and 1000 nM) | < 0.1 |
| COc1cc(NC(=O)C(=O)c2c(C)n(Cc3ccc(Cl)cc3)c3ncc(C)cc23)ccn1 [Compound 76, 2-(1-(4-chlorobenzyl)-2,5-dimethyl-1H-pyrrolo[2,3-b]pyridin-3-yl)-N-(2-methoxypyridin-4-yl)-2-oxoacetamide] | C (C = between 100 nM and 1000 nM) | < 0.1 |
| COc1cc(NC(=O)C(=O)c2c(C)n(Cc3ncc(Cl)cc3Cl)c3cc(Cl)c(OC)cc23)ccn1 [Compound 70, 2-(6-chloro-1-((3,5-dichloropyridin-2-yl)methyl)-5-methoxy-2-methyl-1H-indol-3-yl)-N-(2-methoxypyridin-4-yl)-2-oxoacetamide] | C (C = between 100 nM and 1000 nM) | < 0.1 |
| COc1cc(NC(=O)C(=O)c2c(C)n(Cc3ncc(Cl)cc3F)c3ccc(C)cc23)ccn1 [Compound 33, 2-(1-((5-chloro-3-fluoropyridin-2-yl)methyl)-2,5-dimethyl-1H-indol-3-yl)-N-(2-methoxypyridin-4-yl)-2-oxoacetamide] | C (C = between 100 nM and 1000 nM) | < 0.1 |
| COc1cc(NC(=O)C(=O)c2c(C)n(Cc3ccc(Cl)cc3)c3ccc(C(C)=O)cc23)ccn1 [Compound 5, 2-(5-acetyl-1-(4-chlorobenzyl)-2-methyl-1H-indol-3-yl)-N-(2-methoxypyridin-4-yl)-2-oxoacetamide] | C (C = between 100 nM and 1000 nM) | < 0.1 |
| COc1ccc(Cn2c(C)c(C(=O)C(=O)Nc3ccnc(OC)c3)c3cc(OC)c(F)cc32)nc1 [Compound 32, 2-(6-fluoro-5-methoxy-1-((5-methoxypyridin-2-yl)methyl)-2-methyl-1H-indol-3-yl)-N-(2-methoxypyridin-4-yl)-2-oxoacetamide] | C (C = between 100 nM and 1000 nM) | < 0.1 |
| COc1cc(NC(=O)C(=O)c2c(C)n(Cc3ccc(Cl)cc3)c3ccc(NC(C)=O)cc23)ccn1 [Compound 22, 2-(5-acetamido-1-(4-chlorobenzyl)-2-methyl-1H-indol-3-yl)-N-(2-methoxypyridin-4-yl)-2-oxoacetamide] | B (B = between 10 nM and 100 nM) | < 0.1 |
| COc1cc(NC(=O)C(=O)c2c(C)n(Cc3ccc(Cl)cn3)c3ncc(C)cc23)ccn1 [Compound 75, (1-((5-chloropyridin-2-yl)methyl)-2,5-dimethyl-1H-pyrrolo[2,3-b]pyridin-3-yl)-N-(2-methoxypyridin-4-yl)-2-oxoacetamide] | D (D = greater than 1000 nM) | < 0.1 |
| COc1cc(NC(=O)C(=O)c2c(C)n(Cc3ccc(Cl)cn3)c3ccc(C)cc23)ccn1 [Compound 61, 2-(1-((5-chloropyridin-2-yl)methyl)-2,5-dimethyl-1H-indol-3-yl)-N-(2-methoxypyridin-4-yl)-2-oxoacetamide] | D (D = greater than 1000 nM) | < 0.1 |
| COc1ccc2c(c1)c(C(=O)C(=O)Nc1ccnc(OC)n1)c(C)n2Cc1ccc(Cl)cc1 [Compound 46, 2-(1-(4-chlorobenzyl)-5-methoxy-2-methyl-1H-indol-3-yl)-N-(2-methoxypyrimidin-4-yl)-2-oxoacetamide] | C (C = between 100 nM and 1000 nM) | < 0.1 |
